Data as given in the METLIN SMRT retention time set (Domingo-Almenara et al. 2019).

Assay: gradient 5% acetonitrile 3 min, to 50% in 2 min, to 85% in 15 min, held 3 min, 100 µL/min
Conditions: column: Zorbax Extend-C18 2.1 x 50 mm; eluents: water / acetonitrile, 0.1% formic acid
Summary of the method: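 Retention times of pure standards were taken from adduct peaks that were selected by computer and manually inspected. Over 3 months, mixtures of ~100 molecules were run by HPLC–quadrupole time-of-flight mass spectrometry in positive and negative ionization mode. The Zorbax Extend-C18 column (2.1 × 50 mm, 1.8 μm) ran at 100 μL/min in water and acetonitrile, each containing 0.1% formic acid, with 40 μL dead volume and 900 μL dwell volume.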

SMILES | RP-LC retention time
CCS(=O)(=O)N1CCCc2cc(C(=O)NCCC(C)C)ccc21 | 884 s
CCN1CCN(c2ncc3c(n2)CCN(Cc2ccc(Cl)c(F)c2)C3)CC1 | 575 s
Cc1cc(OCC(=O)N2CCC(C)CC2)nc(-c2ccc(F)cc2)n1 | 1040 s
COc1ccc(NC(=O)Cn2c(C)cc(-c3nnc(C)o3)c2C)cc1 | 732 s
O=C(Nc1cccc(C(F)(F)F)c1)N1CCC(n2cnnc2C2CC2)C1 (configuration not stated) | 701 s
O=C(c1ccsc1)N1CCCC1Cc1noc(-c2cnccn2)n1 (configuration not stated) | 707 s
Nc1cc(C2CCN(C(=O)Nc3ccccc3F)CC2)no1 | 649 s
CC(C)N1CCn2c(nc3cc(C(=O)NC4CCCCCC4)ccc32)C1=O | 750 s
CCN1CCCn2cc(S(=O)(=O)Nc3cc(C)cc(C)c3)cc2C1=O | 768 s
COc1ccc(-c2nc3cc(C)ccn3c2NC(=O)COc2ccc(Cl)cc2Cl)cc1 | 780 s
Cc1ccc(C(=O)Nc2ccc3c(c2)Sc2ncccc2C(=O)N3C(C)C)cc1C | 997 s
Cn1nc(-c2nnc(-c3ccc(F)cc3)o2)c2c1CCN(C(=O)Nc1ccc(Cl)cc1)C2 | 936 s
O=C(NC1CCCCC1)c1cccc(Nc2c(-c3ccc(Cl)cc3)nc3cnccn23)c1 | 935 s
CCOc1ccc(-c2ccc(=O)n(Cc3nc(-c4ccc(C)cc4)no3)n2)cc1 | 1150 s
Cc1nnc(CNC(=O)C(=O)Nc2ccon2)o1 | 534 s
CCc1ccc(N2C(=O)C3N=NN(c4cccc(OC)c4)C3C2=O)cc1 (configuration not stated) | 1020 s
O=C(Nc1ccc2c(c1)OCO2)NC1CCCC(OC(=O)Nc2ccc(F)cc2)C1 (configuration not stated) | 825 s
Cc1oc2c(c1C(=O)NCC1CCN(Cc3ccc(Cl)cc3)CC1)C1=NCCN1C=N2 | 567 s
CCCN1CCN(c2cc(C(=O)O)c3cc(NS(=O)(=O)c4ccc(CC)cc4)ccc3n2)CC1 | 642 s
O=C(NCCCNC(=O)NC1CCCCC1)NC1CCCCC1 | 673 s
O=C(Nc1sc2c(c1CN1CCN(c3ccccn3)CC1)CCCC2)c1ccco1 | 671 s

Other lines, results leading:

RP-LC retention time | SMILES
762 s | CCN(Cc1ccccc1)C(=O)c1ncn2c1C(=O)N(CC)C(C)(C(=O)NCc1ccc(F)cc1)C2 (configuration not stated)
1170 s | Cc1ccc(C)c(S(=O)(=O)N2CCc3nc(-c4ccccc4)ncc3C2)c1
554 s | NC(=O)CSc1ccc(-c2ccccn2)nn1
556 s | CN(C)C(=O)c1cc2c(s1)CCC(C(=O)NCc1ccncc1)C2 (configuration not stated)
606 s | COc1ccc(N2CCN(CCNC(=O)CCSc3ccccc3)CC2)cc1
834 s | Cc1ccccc1-c1noc(Cn2ccn(-c3ccccc3)c(=O)c2=O)n1
984 s | COC(=O)c1cccc(NC(=O)c2csc(-c3cn(C)c4ncccc34)n2)c1
651 s | O=C(NCC1CC1)c1cn(-c2ccc(NC(=O)C3CC3)cn2)cn1
662 s | CCCn1c(CCNC(=O)c2ccc(C#N)cc2)nc2cccnc21
836 s | Cn1nc(-c2ccccc2)cc1C(=O)NCCn1nc(-c2ccc(Cl)cc2)ccc1=O
824 s | O=C(NCCc1ccccc1)C(=O)c1ccc[nH]1
937 s | O=C(N[C@H]1C[C@@H]2C[C@H]1CN2C(=O)Nc1ccc2c(c1)OCCO2)c1ccccc1
654 s | Nc1nc(OCc2ccccc2)c2[nH]cnc2n1
766 s | O=C(Cc1cccs1)NCCOc1ccc(F)cc1
993 s | CCn1cc(-c2nc(C)c(C(=O)Nc3cccc(C(=O)OC)c3)s2)c2cccnc21
739 s | O=C(c1cccc(F)c1)N1CCC2(CC1)N=C(c1ccccc1)NO2
